In paper PMC13385394, “Cryo-EM Structure of the TRPC1/5 Heteromer Enables Design of Antidepressant and Anxiolytic Drug with Reduced Side Effects” (Nature Communications, 2026):
Several values for one entry are separate records, joined by “and”; a condition that tells them apart may be missing. Equal values may be shown once. Entries after “also recorded” stand apart in the source; their conditions may differ. Read-outs that look alike come from different tables or passages of the source.

Columns and labels:
[1] = tested on: diet-induced obesity (DIO) mice; assay: Diet-induced obesity (DIO) model, body weight and food intake; type: in vivo, mouse; conditions: 11 days once daily, HC-070 and JD03-02 10 mg/kg i.g., Semaglutide 0.123 mg/kg s.c.
Protocol: A maximum of five mice were housed per cage during the acclimatization period, and three mice per cage during the experimental period. […] The day of administration was defined as day 1 (D1) of the experiment, with a single dose/day administered for 11 consecutive days. Daily observations were made on the animals’ general condition. Body weight was measured on days 1, 3, 5, 7, 9, and 11 post-administrations. Food intake was measured on days 1, 3, 5, 7, and 9 post-administrations by calculating the difference between the amount of food provided and the amount remaining in the cage, divided by the number of animals in the cage to determine the average food intake per mouse. The cumulative food intake during the experiment was calculated by summing the food intake measurements taken on different days.

[2] = tested on: CUMS-induced depressive-like behaviors; assay: Sucrose preference test (SPT) in CUMS model; type: in vivo, mouse; conditions: CUMS mice
Protocol: The stressors included food and water deprivation, foot shock, wet bedding, cage tilting, restraint, shaking, and olfactory stimulation. These seven stressors were randomly applied each week to ensure unpredictability. The stress induction was maintained continuously for 28 days. Following model establishment, the tail suspension test (TST) was performed to confirm the successful induction of depressive-like behaviors. Mice that met the criteria were randomly assigned to experimental groups.
Acute Treatment: A single dose of the test compound was administered, followed by the sucrose preference test (SPT).
Chronic Treatment: Mice were treated daily for 14 consecutive days. The SPT was conducted on day 11, and the forced swimming test (FST) was performed on day 14.
Mice were acclimated to 1% sucrose solution and plain water for 2 days. On the second day, the positions of the sucrose solution and water were swapped to eliminate positional bias. […] Mice were provided with pre-weighed 1% sucrose solution and plain water. […] Sucrose preference (%) was calculated as Sucrose Preference = A/(A + B)×100.

[3] = Pharmacokinetics in mouse after p.o. and i.v. administration; type: in vivo; conditions: for AUC(0-inf): read-out: AUCINF_obs; for clearance: read-out: CL_obs; for MRT inf: read-out: MRTINF_obs
TRPC1/4 heteromer = target: T1, TRPC1/4 heteromer (Homo sapiens, UniProt P48995+Q9UBN4); assay: Whole-cell patch-clamp, inhibition of TRPC1/4 heteromer; type: cell-based; conditions: read-out: IC50, TRPC1/4 heteromers
T1 construct: expressed in transfected cells
T1 sequence (P48995 whole entry): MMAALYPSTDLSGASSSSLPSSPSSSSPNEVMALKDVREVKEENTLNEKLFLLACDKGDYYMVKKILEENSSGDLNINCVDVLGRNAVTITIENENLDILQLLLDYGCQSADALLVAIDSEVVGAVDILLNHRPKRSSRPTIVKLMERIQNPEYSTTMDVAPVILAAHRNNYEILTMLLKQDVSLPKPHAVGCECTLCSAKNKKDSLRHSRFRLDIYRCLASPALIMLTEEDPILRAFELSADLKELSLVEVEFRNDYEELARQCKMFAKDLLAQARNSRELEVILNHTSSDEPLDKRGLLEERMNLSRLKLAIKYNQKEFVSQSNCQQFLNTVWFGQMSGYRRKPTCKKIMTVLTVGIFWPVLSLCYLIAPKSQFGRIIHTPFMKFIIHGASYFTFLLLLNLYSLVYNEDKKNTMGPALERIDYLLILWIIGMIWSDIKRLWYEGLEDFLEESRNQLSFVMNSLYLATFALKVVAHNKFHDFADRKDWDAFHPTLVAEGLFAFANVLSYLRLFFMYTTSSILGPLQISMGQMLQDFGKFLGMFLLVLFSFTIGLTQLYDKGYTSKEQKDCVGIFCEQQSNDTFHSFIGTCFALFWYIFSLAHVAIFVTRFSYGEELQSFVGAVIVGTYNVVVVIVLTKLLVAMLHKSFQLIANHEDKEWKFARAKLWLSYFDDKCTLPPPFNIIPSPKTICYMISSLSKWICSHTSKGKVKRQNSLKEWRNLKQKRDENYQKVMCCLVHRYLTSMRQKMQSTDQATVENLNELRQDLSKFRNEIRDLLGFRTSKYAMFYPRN
T1 sequence (Q9UBN4 whole entry): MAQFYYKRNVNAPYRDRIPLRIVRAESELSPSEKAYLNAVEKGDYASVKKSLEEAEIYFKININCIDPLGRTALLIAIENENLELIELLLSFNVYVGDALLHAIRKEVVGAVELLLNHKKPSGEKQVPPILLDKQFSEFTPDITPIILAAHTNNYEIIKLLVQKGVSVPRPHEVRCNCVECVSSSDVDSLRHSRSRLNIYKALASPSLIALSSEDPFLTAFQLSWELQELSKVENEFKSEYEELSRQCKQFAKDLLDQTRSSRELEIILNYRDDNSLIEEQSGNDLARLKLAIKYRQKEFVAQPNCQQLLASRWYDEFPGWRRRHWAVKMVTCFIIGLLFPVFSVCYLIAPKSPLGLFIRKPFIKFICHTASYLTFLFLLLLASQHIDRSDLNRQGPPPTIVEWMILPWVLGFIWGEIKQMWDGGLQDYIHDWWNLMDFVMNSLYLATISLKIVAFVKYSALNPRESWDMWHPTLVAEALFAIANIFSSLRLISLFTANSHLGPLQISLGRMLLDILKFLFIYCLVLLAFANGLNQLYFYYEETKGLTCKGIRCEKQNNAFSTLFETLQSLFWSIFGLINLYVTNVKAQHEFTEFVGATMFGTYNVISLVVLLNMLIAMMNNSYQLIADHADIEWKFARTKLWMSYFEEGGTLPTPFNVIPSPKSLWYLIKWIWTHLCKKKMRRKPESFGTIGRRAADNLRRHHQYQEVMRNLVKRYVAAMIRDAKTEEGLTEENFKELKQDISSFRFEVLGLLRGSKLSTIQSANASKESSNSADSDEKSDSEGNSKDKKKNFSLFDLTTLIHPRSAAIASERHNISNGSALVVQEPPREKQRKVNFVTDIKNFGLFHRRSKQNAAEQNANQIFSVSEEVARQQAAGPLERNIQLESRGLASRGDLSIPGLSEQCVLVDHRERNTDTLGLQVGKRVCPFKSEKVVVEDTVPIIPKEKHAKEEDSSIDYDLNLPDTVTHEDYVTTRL

TRPC1/5 = target: T2, TRPC1/5 (Homo sapiens, UniProt P48995+Q9UL62); assay: Calcium flux assay (Calcium 5 kit, EA 100 nM), hTRPC1 + hTRPC5 in HEK293T cells; type: cell-based; conditions: calcium flux screening, 10 μM
T2 construct: Full-length, non-tagged hTRPC1 and hTRPC5 constructs are used for calcium flux assays; expressed in transfected cells; host or cells: HEK293T
T2 sequence (P48995 whole entry): as the sequence (P48995 whole entry) above
T2 sequence (Q9UL62 whole entry): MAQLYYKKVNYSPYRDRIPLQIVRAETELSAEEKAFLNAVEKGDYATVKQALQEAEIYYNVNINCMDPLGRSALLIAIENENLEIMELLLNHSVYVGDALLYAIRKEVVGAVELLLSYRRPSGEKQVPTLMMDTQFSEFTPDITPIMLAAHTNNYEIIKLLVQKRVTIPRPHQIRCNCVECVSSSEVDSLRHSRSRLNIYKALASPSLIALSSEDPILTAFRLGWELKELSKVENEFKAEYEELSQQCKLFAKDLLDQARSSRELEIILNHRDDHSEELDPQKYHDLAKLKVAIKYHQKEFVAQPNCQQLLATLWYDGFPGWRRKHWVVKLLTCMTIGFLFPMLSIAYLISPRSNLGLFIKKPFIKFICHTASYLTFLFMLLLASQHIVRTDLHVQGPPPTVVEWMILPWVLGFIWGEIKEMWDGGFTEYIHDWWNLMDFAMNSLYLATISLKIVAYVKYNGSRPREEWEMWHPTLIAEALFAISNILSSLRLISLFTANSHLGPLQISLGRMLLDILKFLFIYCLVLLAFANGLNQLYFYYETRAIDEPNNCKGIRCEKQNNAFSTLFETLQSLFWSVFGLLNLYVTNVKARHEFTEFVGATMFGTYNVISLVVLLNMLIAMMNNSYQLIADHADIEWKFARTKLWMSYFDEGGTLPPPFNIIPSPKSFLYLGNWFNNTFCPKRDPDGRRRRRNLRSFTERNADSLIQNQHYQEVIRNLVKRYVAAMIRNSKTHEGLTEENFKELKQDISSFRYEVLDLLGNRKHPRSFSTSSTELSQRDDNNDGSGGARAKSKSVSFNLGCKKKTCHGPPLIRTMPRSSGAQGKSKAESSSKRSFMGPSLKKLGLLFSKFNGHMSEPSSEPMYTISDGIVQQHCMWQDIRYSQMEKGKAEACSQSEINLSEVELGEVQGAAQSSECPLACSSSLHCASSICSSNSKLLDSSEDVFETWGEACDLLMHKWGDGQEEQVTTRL
Protocol: Full-length, non-tagged hTRPC1 and hTRPC5 constructs are used for calcium flux assays. hTRPC5 is transfected alone or co-transfected with hTRPC1 into HEK293T cells (70–80% confluency) using PEI as the transfection reagent.
The culture medium is removed, and 100 µL of loading buffer (Calcium 5 Assay Kit) is added to each well, followed by a 1-h incubation at 37 °C in 5% CO2. Five minutes before measurement, molecules are added to each well at a final concentration of 10 µM under light-sensitive conditions.

[4] = C57BL/6J, mouse, in vivo, iv, 2 mg/kg, mouse 2mg/kg i.v., Mean
[5] = C57BL/6J, mouse, in vivo, iv, 2 mg/kg, mouse 2mg/kg i.v., individual animals 4-6
[6] = C57BL/6J, mouse, in vivo, po, 10 mg/kg, mouse 10mg/kg p.o., Mean
[7] = C57BL/6J, mouse, in vivo, po, 10 mg/kg, mouse 10mg/kg p.o., individual animals 1-3
[8] = mouse 2mg/kg i.v., individual animals 4-6, listed as JD03-02, 2 mg/kg
[9] = mouse 10mg/kg p.o., individual animals 1-3, listed as JD03-02, 10 mg/kg

CN(C)CCCCn1c(=O)c2c(nc(Oc3cccc(Cl)c3)n2Cc2ccc(Cl)cc2)n(C)c1=O [H08]
body weight [1]: no significant effect; also recorded: did not affect body weight or food intake | food intake [1]: no significant effect; also recorded: did not affect body weight or food intake | sucrose intake (SPT), repeated dosing ([2]; 11 days once-daily oral, vs vehicle): significantly improved sucrose intake | sucrose preference (SPT), single dose ([2]; single oral dose, JD03-02 30 mg/kg, 30 mg/kg): significantly increased sucrose preference | Tmax ([3]; C57BL/6J, in vivo, po, mouse 10mg/kg p.o., Mean): 1 h | AUC(0-t) [3, 4]: 478 ng·h/mL | half-life [3, 4]: 3.09 h | AUC(0-inf) [3, 4]: 519 ng·h/mL | clearance [3, 4]: 65.9 mL/min/kg | MRT inf [3, 4]: 3.94 h | AUC(0-t) [3, 5]: 385 ng·h/mL | half-life [3, 5]: 3.52 h | AUC(0-inf) [3, 5]: 469 ng·h/mL | clearance [3, 5]: 71 mL/min/kg | MRT inf [3, 5]: 4.46 h | AUC(0-t) [3, 6]: 1190 ng·h/mL | half-life [3, 6]: 2.9 h | AUC(0-inf) [3, 6]: 1220 ng·h/mL | Cmax ([3]; C57BL/6J, mouse, in vivo, po, 10 mg/kg, mouse 10mg/kg p.o., Mean, read-out: Cmax): 201 ng/mL | MRT inf [3, 6]: 5.27 h | half-life [3, 7]: 2.86 h | AUC(0-inf) [3, 7]: 1300 ng·h/mL | Cmax ([3]; C57BL/6J, mouse, in vivo, po, 10 mg/kg, mouse 10mg/kg p.o., individual animals 1-3, read-out: Cmax): 256 ng/mL | MRT inf [3, 7]: 4.73 h | Kp ([3]; brain and heart plasma, po, 10 mg/kg, mouse p.o., read-out: AUClast brain/AUClast heart plasma (brain-to-plasma ratio, B/P)): 0.67 | Kp at 4 h ([3]; brain and heart plasma, po, 10 mg/kg, mouse p.o., read-out: Clast brain/Cmax heart plasma): 0.83 | bioavailability ([3]; in vivo, oral, mouse 10mg/kg p.o. vs 2mg/kg i.v., read-out: F (oral bioavailability)): 49.8% | Vss_obs ([3]; mouse 2mg/kg i.v., Mean): 15.296 L/kg | AUCINF_obs [3, 8]: 447 ng·h/mL and 640 ng·h/mL | AUClast [3, 8]: 416 ng·h/mL and 634 ng·h/mL | CL_obs [3, 8]: 74.6 mL/min/kg and 52.1 mL/min/kg | MRTINF_obs [3, 8]: 2.895 h and 4.460 h | T1/2 [3, 8]: 2.06 h and 3.69 h | Vss_obs [3, 8]: 18.984 L/kg and 12.955 L/kg and 13.949 L/kg | AUCINF_obs [3, 9]: 1549 ng·h/mL and 800 ng·h/mL | AUClast [3, 9]: 1294 ng·h/mL and 1532 ng·h/mL and 746 ng·h/mL | Cmax [3, 9]: 205 ng/mL and 143 ng/mL | MRTINF_obs [3, 9]: 6.50 h and 4.58 h | T1/2 [3, 9]: 3.35 h and 2.48 h | AUClast ([3]; mouse p.o., brain): 524 ng·h/g | Cmax ([3]; mouse, brain, po, 10 mg/kg, mouse p.o., brain, read-out: Cmax): 265 ng/g | concentration at 4 h ([3]; mouse, brain, single 10 mg/kg oral dose, at 4 hours): ~513 nM | AUC(0-t) ([3]; mouse, heart plasma, po, 10 mg/kg, mouse p.o.): 778 ng·h/mL | Cmax ([3]; mouse, heart plasma, po, 10 mg/kg, mouse p.o., heart plasma, read-out: Cmax): 318 ng/mL | AUC(0-t) ([3]; mouse, portal vein plasma, po, 10 mg/kg, mouse p.o.): 1330 ng·h/mL | Cmax ([3]; mouse, portal vein plasma, po, 10 mg/kg, mouse p.o., portal vein plasma, read-out: Cmax): 493 ng/mL | Tmax ([3]; po, 10 mg/kg, mouse p.o., brain): 4 h | Tmax ([3]; po, 10 mg/kg, mouse p.o., heart plasma): 4 h | Tmax ([3]; po, 10 mg/kg, mouse p.o., portal vein plasma): 0.25 h | IC50 (TRPC1/4 heteromer): 6.68 nM and 6.7 nM | inhibition of TRPC1/5 heteromers (in words) (TRPC1/5): strong inhibition
